Experimental data published in patent publication US20260285850A1, “SUBSTITUTED OXAZOLIDINONES AND IMIDAZOLINONES AS HERBICIDES” (FMC CORPORATION, priority 2023, published 2026).

Experiments:
Assay type in all cases: in vivo
corn (Zea mays) [1] = assay: Test A preemergence soil spray, visual injury rating 0-100; settings: 10 days
In short: (§1)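 Greenhouse test: loam/sand pots received a surfactant-containing formulation, as a preemergence directed soil spray or a postemergence spray on young plants. Injury was judged visually at day 10 relative to untreated controls.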

[2] = test system: palmer (palmer amaranth, palmer pigweed, Amaranthus palmeri); assay: as above; settings: 10 days
In short: as §1

[3] = test system: ryegrass, Italian (italian ryegrass, Lolium multiflorum); assay: as above; settings: 10 days
In short: as §1

[4] = test system: wheat (Triticum aestivum); assay: as above; settings: 10 days
In short: as §1

[5] = test system: barnyardgrass (Echinochloa crus-galli); assay: as above; settings: 10 days
In short: as §1

[6] = test system: blackgrass (Alopecurus myosuroides); assay: as above; settings: 10 days
In short: as §1

[7] = test system: oat, wild (wild oat, Avena fatua); assay: as above; settings: 10 days
In short: as §1

[8] = test system: green foxtail (Setaria viridis); assay: as above; settings: 10 days
In short: as §1

soybean (Glycine max) [9] = assay: as above; settings: 10 days
In short: as §1

[10] = test system: ragweed (common ragweed, Ambrosia artemisiifolia); assay: as above; settings: 10 days
In short: as §1

kochia (Bassia scoparia) [11] = assay: as above; settings: 10 days
In short: as §1

rice (Oryza sativa) = assay: Test B flooded paddy test, visual plant response rating 0-100; settings: 250 g ai/ha, Flood, applied to paddy water, evaluated after 13 days
In short: (§2)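 Treatment occurs at the 2-leaf stage by adding compound to floodwater standing 3 cm above the soil, a level kept for the whole test. Plants stay in the greenhouse 13 days before visual comparison with controls.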

[12] = test system: barnyardgrass (Echinochloa crusgalli); assay: as above; settings: 250 g ai/ha, Flood, applied to paddy water, evaluated after 13 days
In short: as §2

[13] = test system: ducksalad (Heteranthera limosa); assay: as above; settings: 250 g ai/ha, Flood, applied to paddy water, evaluated after 13 days
In short: as §2

[14] = test system: sedge, umbrella (small-flower umbrella sedge, Cyperus difformis); assay: as above; settings: 250 g ai/ha, Flood, applied to paddy water, evaluated after 13 days
In short: as §2

[15] = test system: galium (catchweed bedstraw, Galium aparine); assay: Test A postemergence application, visual injury rating 0-100
In short: as §1

corn (Zea mays) [16] = assay: as above
In short: as §1

[17] = test system: palmer (palmer amaranth, palmer pigweed, Amaranthus palmeri); assay: as above
In short: as §1

[18] = test system: ryegrass, Italian (italian ryegrass, Lolium multiflorum); assay: as above
In short: as §1

[19] = test system: wheat (Triticum aestivum); assay: as above
In short: as §1

[20] = test system: barnyardgrass (Echinochloa crus-galli); assay: as above
In short: as §1

[21] = test system: blackgrass (Alopecurus myosuroides); assay: as above
In short: as §1

[22] = test system: oat, wild (wild oat, Avena fatua); assay: as above
In short: as §1

[23] = test system: green foxtail (Setaria viridis); assay: as above
In short: as §1

[24] = test system: horseweed (Erigeron canadensis); assay: as above
In short: as §1

soybean (Glycine max) [25] = assay: as above
In short: as §1

[26] = test system: ragweed (common ragweed, Ambrosia artemisiifolia); assay: as above
In short: as §1

kochia (Bassia scoparia) [27] = assay: as above
In short: as §1

[28] = 62 g ai/ha, 0 = no effect, 100 = complete control
[29] = 62 g ai/ha, postemergence, 10 days, 0 = no effect, 100 = complete control
[30] = Postemergence, 16 g ai/ha, greenhouse 10 days, 0 no effect, 100 complete control

COC(=O)C1C=CC(NC(=O)C2(C)CN(c3cc(F)cc(F)c3)C(=O)O2)C1 (mixture of isomers) [Compound 161]
Corn plant response rating (corn (Zea mays) [1]; 16 g ai/ha, 0 to 100 scale): 30
Corn plant response rating (0-100) (corn (Zea mays) [1]; [28]): 80
Pigweed, Palmer plant response rating ([2]; 16 g ai/ha, 0 to 100 scale): 90
Pigweed, Palmer plant response rating (0-100) [2, 28]: 100
Ryegrass, Italian plant response rating ([3]; 16 g ai/ha, 0 to 100 scale): 90
Ryegrass, Italian plant response rating (0-100) [3, 28]: 90
Wheat plant response rating ([4]; 16 g ai/ha, 0 to 100 scale): 80
Wheat plant response rating (0-100) [4, 28]: 90
Barnyardgrass plant response rating ([5]; 16 g ai/ha, 0 to 100 scale): 80
Barnyardgrass plant response rating (0-100) [5, 28]: 100
Blackgrass plant response rating ([6]; 16 g ai/ha, 0 to 100 scale): 70
Blackgrass plant response rating (0-100) [6, 28]: 90
Oat, Wild plant response rating ([7]; 16 g ai/ha, 0 to 100 scale): 30
Oat, Wild plant response rating (0-100) [7, 28]: 90
Foxtail, Green plant response rating ([8]; 16 g ai/ha, 0 to 100 scale): 30
Foxtail, Green plant response rating (0-100) [8, 28]: 100
Soybean plant response rating (soybean (Glycine max) [9]; 16 g ai/ha, 0 to 100 scale): 0
Soybean plant response rating (0-100) (soybean (Glycine max) [9]; [28]): 50
Ragweed plant response rating ([10]; 16 g ai/ha, 0 to 100 scale): 10
Ragweed plant response rating (0-100) [10, 28]: 50
Kochia plant response rating (kochia (Bassia scoparia) [11]; 16 g ai/ha, 0 to 100 scale): 0
Kochia plant response rating (0-100) (kochia (Bassia scoparia) [11]; [28]): 50
Plant response rating, Rice (0 to 100 scale, 0 is no effect and 100 is complete control) (rice (Oryza sativa)): 85
Plant response rating, Barnyardgrass (0 to 100 scale, 0 is no effect and 100 is complete control) [12]: 60
Plant response rating, Ducksalad (0 to 100 scale, 0 is no effect and 100 is complete control) [13]: 80
Plant response rating, Sedge, Umbrella (0 to 100 scale, 0 is no effect and 100 is complete control) [14]: 95
Galium plant response rating (0-100) [15, 29]: 90
Galium plant response rating (0 to 100 scale) [15, 30]: 80
Corn plant response rating (0-100) (corn (Zea mays) [16]; [29]): 100
Corn plant response rating (0 to 100 scale) (corn (Zea mays) [16]; [30]): 100
Pigweed, Palmer plant response rating (0-100) [17, 29]: 70
Pigweed, Palmer plant response rating (0 to 100 scale) [17, 30]: 40
Ryegrass, Italian plant response rating (0-100) [18, 29]: 80
Ryegrass, Italian plant response rating (0 to 100 scale) [18, 30]: 70
Wheat plant response rating (0-100) [19, 29]: 90
Wheat plant response rating (0 to 100 scale) [19, 30]: 90
Barnyardgrass plant response rating (0-100) [20, 29]: 100
Barnyardgrass plant response rating (0 to 100 scale) [20, 30]: 80
Blackgrass plant response rating (0-100) [21, 29]: 90
Blackgrass plant response rating (0 to 100 scale) [21, 30]: 90
Oat, Wild plant response rating (0-100) [22, 29]: 90
Oat, Wild plant response rating (0 to 100 scale) [22, 30]: 90
Foxtail, Green plant response rating (0-100) [23, 29]: 90
Foxtail, Green plant response rating (0 to 100 scale) [23, 30]: 60
Horseweed plant response rating (0-100) [24, 29]: 70
Horseweed plant response rating (0 to 100 scale) [24, 30]: 60
Soybean plant response rating (0-100) (soybean (Glycine max) [25]; [29]): 70
Soybean plant response rating (0 to 100 scale) (soybean (Glycine max) [25]; [30]): 60
Ragweed plant response rating (0-100) [26, 29]: 70
Ragweed plant response rating (0 to 100 scale) [26, 30]: 50
Kochia plant response rating (0-100) (kochia (Bassia scoparia) [27]; [29]): 30
Kochia plant response rating (0 to 100 scale) (kochia (Bassia scoparia) [27]; [30]): 0
